According to patent publication US8110570B2, “Modulators of acetyl-coenzyme A carboxylase and methods of use thereof” (Cropsolution, Inc., priority 2008, dated 2012):

How the values were obtained:
hACC2 = target: T1, hACC2 (Homo sapiens, UniProt O00763); experiment: [14C]bicarbonate incorporation assay, overall ACC activity; type: biochemical; conditions: recombinant hACC2, overall ACC activity
T1 construct: delete amino acids 1-148 and add Met-Gly in front of Lys149 in the final product; His tag (C); made in house; host or cells: baculovirus, Sf9 insect cells
T1 sequence (O00763 149-2458 limits assumed): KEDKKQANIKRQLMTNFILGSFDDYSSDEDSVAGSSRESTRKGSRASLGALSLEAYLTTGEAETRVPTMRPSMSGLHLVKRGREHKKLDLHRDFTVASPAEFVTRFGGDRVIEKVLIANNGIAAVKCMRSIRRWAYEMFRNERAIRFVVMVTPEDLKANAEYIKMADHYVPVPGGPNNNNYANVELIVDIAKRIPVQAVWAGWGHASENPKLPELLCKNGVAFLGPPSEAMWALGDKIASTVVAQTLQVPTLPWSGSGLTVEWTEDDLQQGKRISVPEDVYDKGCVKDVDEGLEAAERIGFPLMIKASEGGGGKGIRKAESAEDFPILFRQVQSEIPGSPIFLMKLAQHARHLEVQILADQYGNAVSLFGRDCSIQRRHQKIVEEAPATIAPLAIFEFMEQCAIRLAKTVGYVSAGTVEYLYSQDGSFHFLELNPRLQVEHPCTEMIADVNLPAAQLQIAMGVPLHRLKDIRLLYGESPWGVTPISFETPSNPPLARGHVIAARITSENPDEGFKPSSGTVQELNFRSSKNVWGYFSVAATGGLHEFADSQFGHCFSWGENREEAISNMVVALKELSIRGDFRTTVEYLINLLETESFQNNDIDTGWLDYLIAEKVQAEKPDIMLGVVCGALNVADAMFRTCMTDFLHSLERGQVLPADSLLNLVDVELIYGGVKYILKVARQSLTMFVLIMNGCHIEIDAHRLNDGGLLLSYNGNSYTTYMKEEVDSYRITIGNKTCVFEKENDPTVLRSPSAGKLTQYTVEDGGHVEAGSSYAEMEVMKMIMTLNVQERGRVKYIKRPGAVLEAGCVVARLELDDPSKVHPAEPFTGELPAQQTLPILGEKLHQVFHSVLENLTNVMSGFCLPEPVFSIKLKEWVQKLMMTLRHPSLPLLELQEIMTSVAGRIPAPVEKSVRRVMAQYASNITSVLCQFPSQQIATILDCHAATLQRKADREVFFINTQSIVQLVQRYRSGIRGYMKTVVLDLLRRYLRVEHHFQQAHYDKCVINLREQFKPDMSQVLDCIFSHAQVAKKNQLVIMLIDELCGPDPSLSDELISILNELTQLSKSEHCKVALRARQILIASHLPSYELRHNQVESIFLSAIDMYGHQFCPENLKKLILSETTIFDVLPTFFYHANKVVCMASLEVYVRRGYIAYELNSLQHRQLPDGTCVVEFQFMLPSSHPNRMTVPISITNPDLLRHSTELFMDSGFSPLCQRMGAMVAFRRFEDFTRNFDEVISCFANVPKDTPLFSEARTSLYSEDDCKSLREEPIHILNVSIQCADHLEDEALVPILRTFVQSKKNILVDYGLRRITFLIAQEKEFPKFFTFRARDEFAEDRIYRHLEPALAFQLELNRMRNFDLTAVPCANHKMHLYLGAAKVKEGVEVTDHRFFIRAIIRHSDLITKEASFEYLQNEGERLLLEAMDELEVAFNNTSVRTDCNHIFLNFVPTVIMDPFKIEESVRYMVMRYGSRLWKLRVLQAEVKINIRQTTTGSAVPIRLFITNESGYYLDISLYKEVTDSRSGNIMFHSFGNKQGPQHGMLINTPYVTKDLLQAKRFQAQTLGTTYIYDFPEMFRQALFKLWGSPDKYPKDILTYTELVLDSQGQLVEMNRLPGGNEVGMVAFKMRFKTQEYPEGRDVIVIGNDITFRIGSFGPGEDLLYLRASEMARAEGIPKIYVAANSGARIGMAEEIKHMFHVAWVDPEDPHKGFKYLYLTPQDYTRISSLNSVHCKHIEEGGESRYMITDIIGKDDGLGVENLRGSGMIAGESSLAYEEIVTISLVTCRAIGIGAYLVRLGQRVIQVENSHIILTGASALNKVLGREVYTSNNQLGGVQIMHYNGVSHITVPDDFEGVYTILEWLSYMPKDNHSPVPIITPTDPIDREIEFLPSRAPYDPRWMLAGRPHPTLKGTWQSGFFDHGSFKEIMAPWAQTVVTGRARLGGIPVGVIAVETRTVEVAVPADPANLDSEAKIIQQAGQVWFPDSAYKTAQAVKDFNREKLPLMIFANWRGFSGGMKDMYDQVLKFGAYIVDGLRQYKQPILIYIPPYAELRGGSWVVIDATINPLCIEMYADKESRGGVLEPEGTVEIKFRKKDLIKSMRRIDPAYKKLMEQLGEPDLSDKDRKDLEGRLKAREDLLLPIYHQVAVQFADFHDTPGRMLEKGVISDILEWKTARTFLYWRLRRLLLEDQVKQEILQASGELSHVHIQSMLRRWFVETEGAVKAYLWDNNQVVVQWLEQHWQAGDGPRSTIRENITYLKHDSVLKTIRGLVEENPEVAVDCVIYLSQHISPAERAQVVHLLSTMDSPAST
Method in brief: (§1)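 His-tagged full-length hACC1 or hACC2 (residues 1-148 deleted, Met-Gly added), expressed in sf9 cells with biotin and purified, were assayed by [14C]bicarbonate incorporation into acetyl-CoA. Reactions at pH 7.4 with 2 mM acetyl-CoA, 12 mM NaHCO3 and 1% DMSO were started with 2 mM ATP and run 10 min at 37° C. Acid-stable label was counted and IC50 obtained from dose-response fits.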

hACC1 = target: T2, hACC1 (Homo sapiens, UniProt Q13085); experiment: as above; type: biochemical; conditions: recombinant hACC1, overall ACC activity
T2 construct: PCR primers were designed for full-length hACC1 and hACC2 using GenBank submissions AY237919 and AJ575592, respectively; His tag (C); made in house; host or cells: baculovirus, Sf9 insect cells
Method in brief: as §1

[1] = system: hepatic fatty acid synthesis; experiment: In vivo inhibition of rat hepatic fatty acid synthesis; conditions: oral
Procedure: In vivo measurement of fatty acid synthesis inhibition in mammals. Incorporation of [2-^14C]acetate into saponifiable lipids in the livers of mammals (e.g. Sprague Dawley rats, Charles River Laboratories, Boston, Mass. or Harlan Laboratories, Indianapolis, Ind.) can be measured as described previously (Harwood Jr. H. J. et al., J Biol Chem, 39: 37099-37111 (2003)). For example, animals given food and water ad libitum are treated orally at volume of 1.0 ml/200 g of body weight with either an aqueous solution containing 0.5% methyl cellulose (vehicle) or an aqueous solution containing 0.5% methyl cellulose containing test compound. One hour after compound administration, animals receive an intraperitoneal injection of [2-^14C]acetate (0.02 mL, 1 mCi/mL; 50 mCi/mmol. One hour after radiolabel administration, animals are sacrificed by CO2 asphyxiation, and two liver pieces (about 0.75 g each) are removed and saponified at 70° C. for 120 min in 2.5 M NaOH (1.5 mL). After saponification, absolute EtOH (2.5 mL) is added to each sample and the solutions are mixed and allowed to stand overnight. Petroleum ether (4.8 mL) is then added to each sample, and after vigorous shaking (2 min) the mixtures are centrifuged at 1000×g (5 min). The petroleum ether layer containing the nonsaponifiable lipids is removed and discarded. The remaining aqueous layer is acidified (pH<2) by addition of 12 M HCl (0.6 mL) and extracted two times with petroleum ether (4.8 mL). The pooled organic fractions are transferred to liquid scintillation vials, dried under nitrogen, dissolved in Aquasol scintillation fluid (7 ml), and radioactivity is quantified by liquid scintillation counting. Inhibition of fatty acid synthesis by the test compound is expressed as a relative percent inhibition of measured incorporation of [2-^14C]acetate into saponifiable lipids during the interval between [2-^14C]acetate injection and CO2 asphyxiation in animals receiving test compound, compared to control animals receiving only the vehicle.
Compounds of the present invention, and salts thereof, were evaluated for inhibition of fatty acid synthesis as described above.

SMILES | IC50 (hACC2) | IC50 (hACC1) | Percent Inhibition at 10 mg/Kg [1] | Percent Inhibition at 30 mg/Kg [1]
COc1cc(C(=O)N2CCC3(CC2)NC(=O)c2cc(Br)ccc2O3)nc2c(OC)cccc12 [Compound 2, 6-Bromo-1′-[(4,8-dimethoxyquinoline-2-yl)carbonyl]spiro[2H-1,3-benzoxazine-2,4′-piperidine]-4(3H)-one] | 51 nM | 88 nM | – | –
COc1ccc2c(c1)C(=O)NC1(CCN(C(=O)c3cc(OC)c4cccc(OC)c4n3)CC1)O2 [Compound 150] | 23 nM | 26 nM | 20% | 54%
COc1cc(C(=O)N2CCC3(CC2)NC(=O)c2cc(OC(C)C)ccc2O3)nc2c(OC)cccc12 [Compound 169] | 7.4 nM | 7.5 nM | 30% | 60%
